We go through two compounds from patent US20100323990A1, “SHIP 1 MODULATOR PRODRUGS” (THE UNIVERSITY OF BRITISH COLUMBIA, priority 2006, published 2010).

The experiment deals with SHIP+/+ bone marrow derived macrophages. Description: LPS-stimulated TNFα production in SHIP+/+ bone marrow derived macrophages. In kind it is cell-based, mice. As to conditions: for suppression of TNFα production: SHIP+/+ cells, 10 ng/mL LPS 2 h. As for the experimental part:
Bone marrow cells were aspirated from 4 to 8 week old C57B16×129Sv mixed background mice and SHIP^+/+ and SHIP^−/− mast cells prepared as described previously. Bone marrow derived macrophages from SHIP^+/+ and SHIP^−/− mice were obtained and maintained in IMDM supplemented with 10% FCS, 150 μM MTG, 2% C127 cell conditioned medium as a source of macrophage colony stimulating factor (M-CSF) (macrophage medium)
LPS stimulation of macrophages. For the analysis of LPS-stimulated TNFα production, 2×10^5 cells were plated the night before in 24 well plates in macrophage medium. The next day, the medium was changed and AQX-016A or carrier was added to cells at the indicated concentrations for 30 min prior to the addition of 10 ng/mL LPS. Supernatants were collected for TNFα determination by ELISA (BD Biosciences, Mississauga, ON, Canada). For analysis of intracellular signaling, 2×10^6 cells were plated the night before in 6 cm tissue culture plates. The next day, the cells were cultured in macrophage medium without M-CSF for 1 hr at 37° C. and then pretreated with AQX-016A or carrier for 30 min prior to the addition of 10 ng/mL LPS for 15 min. Cells were washed with 4° C. PBS and resuspended in lysis buffer (50 mM Hepes, 2 mM EDTA, 1 mM NaVO4, 100 mM NaF, 50 mM NaPPi and 1% NP40) supplemented with Complete Protease Inhibitor Cocktail (Roche, Montreal, Canada). Lysates were rocked at 4° C. for 30 min and clarified by centrifuging 20 min at 12000×g. Lysates were then made 1× in Laemmli's buffer, boiled 2 min and loaded onto 7.5% SDS polyacrylamide […]. Immunoblot analysis for phospho PKB (Cell Signalling, Mississauga, Ont), SHIP and actin (Santa Cruz, Santa Cruz, Calif.) were carried out as described previously. Stimulation of mast cells by FcεRI crosslinking. Mast cells were pre-loaded overnight in BMMC medium lacking IL-3 with 0.1 μg/ml anti-DNP IgE (SPE-7, Sigma, Oakville, Ont). For calcium flux measurements, cells were incubated with 2 μM fura 2-acetoxymethyl ester (Molecular Probes, Eugene, Oreg.) in Tyrode's buffer at 23° C. for 45 min. Cells were then washed and incubated in the presence of vehicle control, LY294002 or AQX-016A 30 min prior to stimulation with the indicated concentration of DNP-human serum albumin (DNP-HSA). Calcium influx was monitored by spectrofluorometry. For analysis of intracellular signaling, cells were pre-loaded with anti-DNP IgE as above, pre-treated with AQX-016A or buffer control for 30 min at 37° C. and stimulated with 20 ng/ml DNP-HSA for 5 min. Total cell lysates were then prepared and analyzed for phospho-PKB, phospho-p38^MAPK, phospho-MAPK, Grb-2 (Cell Signalling, Mississauga, Ont) and SHIP^6 by immunoblot analysis.
The target specificity and biological efficacy of AQX-016A were assessed by comparing AQX-016A's effects on PI3K-regulated processes in primary SHIP^+/+ vs SHIP^−/− macrophages and mast cells. […] LPS stimulation of macrophages is associated with a PIP3-dependent release of pro-inflammatory mediators such as TNFα. The action of AQX-016A on SHIP^+/+ vs SHIP^−/− bone marrow derived macrophages was examined. Cells were pretreated for 30 min with AQX-016A prior to stimulation with 10 ng/mL of LPS for 2 h. AQX-016A was able to suppress TNFα production in SHIP^+/+ cells by 30% at 3 μM and 50% at 15 μM (FIG. 8A). […] Activation of mast cells via IgE+ antigen crosslinking of their IgE receptors results in elevation of intracellular calcium levels.

Consider `Cc1cc(O)c(O)c2c1[C@]1(C)CCC3C(C)(C)CCC[C@]3(C)[C@H]1C2` (stereo partly shown) [AQX-016A], for which the “suppression of TNFα production” value runs as follows: (3 μM) 30%; (15 μM) 50%.

Usually EC50 stands for the concentration that produces a half-maximal response. Take `Cc1cc(O)cc2c1[C@]1(C)CCC3C(C)(C)CCC[C@]3(C)[C@H]1C2` (stereo partly shown) [Compound 100]: the “TNFα production, SHIP+/+ vs SHIP−/− macrophages” value (LPS stimulated) is recorded as “selectively inhibited”. Further, the EC50 (Mus musculus, Macrophage, SHIP+/+ macrophages, LPS stimulated, read-out: EC50 for inhibition of TNFα production) lay in the range of 300 to 600 nM.
